Laboratory results reported in ChEMBL document CHEMBL1770057, “Synthesis and antibacterial activity of alaremycin derivatives for the porphobilinogen synthase” (Bioorg Med Chem Lett, 2011).

tested on: not listed separately; experiment: Inhibition of Pseudomonas fluorescens porphobilinogen synthase by PBGS assay

SMILES | IC50
C[C@H](NC(=O)C(F)(F)F)C(=O)CCC(=O)O | 3000 µM
C[C@@H](NC(=O)C(F)(F)F)C(=O)CCC(=O)O | 4100 µM
O=C(O)CCC(=O)CNC(=O)CCC(F)(F)F | 1300 µM
C=C(NC(=O)CC(F)(F)F)C(=O)CCC(=O)O | 900 µM
C=C(NC(C)=O)C(=O)CCC(=O)O [ALAREMYCIN] | 2600 µM
CC(=O)N[C@H](C)C(=O)CCC(=O)O [ALAREMYCIN 2] | 700 µM
C=C(NC(=O)C(F)(F)F)C(=O)CCC(=O)O | 22 µM
C=C(NC(=O)CCC(F)(F)F)C(=O)CCC(=O)O | 51 µM
CC(=O)NCC(=O)CCC(=O)O | 2500 µM
O=C(O)CCC(=O)CNC(=O)C(F)(F)F | 8000 µM
O=C(O)CCC(=O)CNC(=O)CC(F)(F)F | 500 µM
CC(=O)N[C@@H](C)C(=O)CCC(=O)O | 1100 µM

tested on: Pseudomonas fluorescens; experiment: Ratio of IC50 of Alaremycin to IC50 of compound for Pseudomonas fluorescens porphobilinogen synthase

SMILES | Ratio IC50
C=C(NC(=O)C(F)(F)F)C(=O)CCC(=O)O | 100
C=C(NC(=O)CCC(F)(F)F)C(=O)CCC(=O)O | 50
